Patent publication US7741435B2, “Substance P-saporin (SP-SAP) conjugates and methods of use thereof” (Advanced Targeting Systems, Inc., priority 1997, dated 2010)

What was measured:
[1] = system: NK-1R-expressing spinal cord neurons; experiment: Internalization and cytotoxicity in primary cultures of spinal cord neurons; type: cell-based, rat; conditions: for morphological or cytotoxic changes in NK-1R-expressing and non-NK-1R, MAP-2 neurons: treatment alone
Protocol: SP-SAP internalization and cytotoxicity was examined in primary cultures of neonatal rat spinal cord neurons where approximately 15% of the neurons express NK-1R. All procedures were approved by Animal Care Committee at the VA Medical Center and the University of Minnesota. Neurons were cultured from the spinal cords of 18-day embryonic Holtzman rats (Harlan Sprague Dawley, Madison, Wis.). The whole spinal cord was dissected out of the rat and placed in 4° C. Puck's saline supplemented with 40 mM. glucose, 50 mM sucrose, and 10 mM Hepes (DISG media, pH 7.4). The spinal cords were then dissociated by trituration (15-20 times) through a small bore serological pipet. The resulting cell suspension was centrifuged at 4° C. for 5 min at 1500 rpm in a Sorvall RC-3B centrifuge (DuPont, Newtown, Conn.). The supernatant was removed and the pellet resuspended in Dulbecco's modified Eagle's medium (DMEM; Sigma Chemical Co., St. Louis, Mo.) plus 5% equine serum and 5% calf serum (v/v) (Hyclone, Logan, Utah). The cell suspension was plated on poly-L-ornithine coated 2-well chamber slides at a density of 100,000 cells/ml, and incubated at 37° C. with 9% CO2. After 4 days the mitotic inhibitors, 5-fluoro-2′-deoxyuridine and uridine were added. At 7 days the media was replaced with DMEM plus 10% equine serum (v/v). The cells were incubated unil 14 days post-culture with media changes every 4th day.
At day 14 post-culture, either saline or SP, SP-SAP conjugate or saporin (SAP) were added to a final concentration of 10^−7 M. The cells were incubated for 12 hr with the SP-SAP or SAP compounds at which time the compounds were removed from the culture and fresh media was added. The cultures were then allowed to continue until the desired timepoints (2 hr. 1, 4, 7, and 10 days) at which time the experiment was terminated and the cells were processed for immunohistochemistry by fixing for 20 min at 22° C. with 4% formalin in a phosphate buffered saline solution as previously described (2,39-42). […] Two hours following treatment with 10^−7 M SP-SAP, but not 10^−7 M SAP, NK-1R internalization was visualized using an antibody that recognized NK-1R (FIG. 8A) and intracellular accumulation of SAP was visualized using an antibody that recognized SAP (FIG. 8B)
In contrast, one day following treatment with SP alone the majority of NK-1R had recycled to the plasma membrane. Thus, within 24 hours after SP-SAP internalization these neurons could no longer efficiently recycle NK-1R back to the plasma membrane.

[2] = system: NK-1R-expressing lamina I spinal cord neurons; experiment: Cytotoxicity of intrathecal infusion in the spinal cord (immunohistochemistry, confocal microscopy); conditions: for change in NK-1R immunoreactivity in lamina I, spinal segments L2-L5: intrathecal injection alone, any time point examined; for change in cell number, morphology or fluorescence level of any of the cell markers examined: treatment alone, 28 days
Protocol: Animals were anesthetized with an intramuscular injection of Ketamine (100 mg/kg) & Acepromazine (1 mg/kg) and placed in a stereotaxic frame. An 8.5-cm length of PE-10 tubing (inner diameter: 0.28 mm, outer diameter: 0.61 mm), serving as an inflow cannula, was inserted into the subarachnoid space via an incision in the atlanto-occipital membrane. The cannula terminated in the caudal region of the lumbar enlargement (approximately L4). […] 5 min after spinal superfusion, the cannula was carefully withdrawn and the wound closed with 3-0 silk sutures.
Immunohistochemistry and fluorescent confocal microscopy was performed as previously described (46) using an MRC-1024 Confocal Imaging System (Bio-Rad, Boston, Mass.) and an Olympus BH-2 microscope equipped for epifluorescence (Lake Success, N.Y.). For cell counts the spinal cords were cut in the sagittal plane whereas for immunofluorescence measurements the spinal cords were cut in either the sagittal or coronal plane. Both of the microscopes were set up as previously described (46,47). SPR was detected by a polyclonal rabbit anti-SPR antibody (1:5000; a kind gift from S. Vigna) raised against a 15 amino acid peptide sequence (SPR393-407) at the COOH-terminus of the rat SPR. […] Calbindin was detected by a monoclonal mouse anti-calbindin antibody (Sigma, 1:300). Microtubule-associated protein (MAP-2) was detected by a monoclonal mouse anti MAP-2 antibody (Sigma, 1:750). Choline acetyl transferase (CHAT) was detected by a monoclonal mouse anti-ChAT antibody (Chemicon, 1:500). Glial Fibrillary Acidic Protein was detected by a polyclonal rabbit anti-GFAP antibody (DAKO, 1:450). OX-42 was detected using a monoclonal mouse antibody (Chemicon, 1:2,000). Saporin was detected by a polyclonal goat anti-Saporin antibody (Advanced Targeting Systems, 1:350). […] All primary (overnight, 22° C.) and secondary (3 hours, 22° C.) antibodies were applied in cocktails with 1% goat serum and 0.3% Triton X-100 in PBS solution. Finally, the tissue sections were washed for 20 min in PBS (pH 7.4, 22_C), mounted onto gelatin-coated slides, and coverslipped using PBS-glycerine containing 1.0% p-phenylenediamine to reduce photobleaching.
To determine the number of immunofluorescent cell bodies (Table 1) the slides were viewed through a 1.0 cm^2 eyepiece grid, which was divided into one hundred 1 mm×1 mm units, and the total number of immunofluorescent cell bodies/unit area were counted. To calculate SPR immunofluorescence intensity, images of the 60 μm thick tissue sections were obtained with the BioRad MRC1024 laser scanning confocal fluorescent imaging system and analyzed using NIH Image 1.7.
Cell numbers and immunofluorescence levels were determined using confocal microscopy. […] All data points represent an n=6 and are expressed as +/−s.e.m. and significant differences calculated by a one-way ANOVA and Bonferroni comparisons (* denotes P<0.01).

[3] = system: capsaicin-induced hyperalgesia in rats; experiment: Capsaicin-induced nocifensive behavior and mechanical and heat hyperalgesia after intrathecal pretreatment; type: in vivo, rat; conditions: compared to normal untreated animals, any time point
Description: Measures of nocifensive behavior and hyperalgesia produced by intraplantar injection of capsaicin were obtained as described previously (48). Hyperalgesia is defined as an increase in withdrawal responses. The capsaicin model of hyperalgesia used in these experiments was chosen as it has been well characterized, it clearly produces hyperalgesia in humans and it is the only model of hyperalgesia that can be used in parallel animal and human studies. Capsaicin (Sigma Chemical Co., St. Louis, Mo.) was dissolved in a vehicle of 7.5% polyxyethylene sorbitan monooleate (Tween-80) and saline, and given into the plantar surface of one hindpaw. Each animal received one injection of […]. The duration of nocifensive behavior, defined as lifting and guarding the injected paw, was measured for the first five minutes after injection.
Withdrawal responses to heat were determined using a procedure previously described (49). […] The start of each trial activated a timer and withdrawal latencies to the nearest 0.1 sec were measured automatically by a photocell which terminated each trial and stopped the timer upon withdrawal of the paw. […]
To measure withdrawal responses to mechanical stimuli, rats were placed under a clear plastic cage on an elevated plastic mesh floor (1 cm^2 perforations). […] The frequency was determined for each hindpaw. […]

[4] = General observation after intrathecal infusion (body weight, food intake, behavior); type: in vivo, rat; conditions: for 28 days after intrathecal injection
NK-1R = molecular target: T1, NK-1R (Rattus norvegicus, UniProt P14600); experiment: Inhibition of radiolabeled SP binding to spinal cord membrane homogenates; conditions: iodinated SP 150 pM, 100 nM nonlabeled competitor, FIG. 4
T1 construct: from tissue; host or cells: membrane homogenate (spinal cord according to the assay title)
T1 sequence (P14600 whole entry): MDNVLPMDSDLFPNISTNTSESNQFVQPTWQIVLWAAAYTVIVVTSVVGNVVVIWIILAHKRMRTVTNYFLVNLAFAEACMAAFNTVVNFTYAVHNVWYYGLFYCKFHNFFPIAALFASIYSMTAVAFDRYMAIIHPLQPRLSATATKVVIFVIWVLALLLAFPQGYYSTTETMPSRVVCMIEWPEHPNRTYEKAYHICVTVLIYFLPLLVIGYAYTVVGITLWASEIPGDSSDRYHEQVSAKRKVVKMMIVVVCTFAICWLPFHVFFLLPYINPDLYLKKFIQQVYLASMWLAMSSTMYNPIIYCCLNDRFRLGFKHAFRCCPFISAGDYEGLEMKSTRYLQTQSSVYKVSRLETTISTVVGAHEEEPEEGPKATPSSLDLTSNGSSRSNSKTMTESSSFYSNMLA
Protocol: Homogenate is prepared and binding performed as previously described (26). […] Membrane-bound label is separated from free label by centrifugation and measured with a gamma counter. Control is no addition of competitor.

[5] = L4 segment, 28 days post-treatment, intrathecal, n=6, ± s.e.m.

Row | Compound | morphological or cytotoxic changes in NK-1R-expressing and non-NK-1R, MAP-2 neurons ([1]; 10^−7 M) | change in NK-1R immunoreactivity in lamina I, spinal segments L2-L5 [2] | change in cell number, morphology or fluorescence level of any of the cell markers examined [2] | change in mechanical or thermal hyperalgesia, or nocifensive behavior produced by capsaicin [3] | changes in body weight, food intake, alertness, locomotion or grooming behavior [4] | inhibition of iodinated SP binding (NK-1R) | further results
1 | COc1ccccc1CC(=N)N1C[C@@H]2C(=O)CCC(c3ccccc3)(c3ccccc3)[C@@H]2C1 [RP67580] |  |  |  |  |  |  | block of SP- and SP-SAP-induced NK-1R internalization ([1]; 5×10^−6 M antagonist): blocked
2 | RPKPQQFFGLM [SP] | no significant morphological or cytotoxic changes | no change | did not produce a significant change | no significant change | no detectable changes |  | NK-1R internalization ([1]; 10^−7 M, cultured spinal cord neurons): induced a rapid and similar degree of NK-1R internalization
3 | SAP: potent ribosome-inactivating protein isolated from the seeds of the plant Saponaria officinalis | no significant morphological or cytotoxic changes | no change | did not produce a significant change | no significant change | no detectable changes | little or no inhibition | Percent immunoreactive positive cells (saline = 100), SP (DRG) ([2]; L4 dorsal root ganglia, 28 days post-treatment, intrathecal, n=6, ± s.e.m.): 91 ± 11%; Percent immunofluorescence level, GFAP (lamina I) [2, 5]: 90 ± 13%; Percent immunofluorescence level, MAP-2 (lamina I) [2, 5]: 100 ± 14%; Percent immunofluorescence level, SP (laminae I and II) [2, 5]: 96 ± 3%; Percent immunofluorescence level, SPR (laminae I and II) [2, 5]: 95 ± 3%; Percent immunoreactive positive cells (saline = 100), Calbindin (laminae I and II) [2, 5]: 96 ± 7%; Percent immunoreactive positive cells (saline = 100), ChAT (motor neurons) [2, 5]: 116 ± 24%; Percent immunoreactive positive cells (saline = 100), SPR (lamina III and IV) [2, 5]: 79 ± 13%; Percent immunoreactive positive cells (saline = 100), SPR (laminae I and II) [2, 5]: 80 ± 16%; Percent immunofluorescence level, SPR (preganglionic sympathetic) ([2]; spinal segment T10, 28 days post-treatment, intrathecal, n=6, ± s.e.m.): 100 ± 9%
4 | neurokinin A |  |  |  |  |  | significant interaction with the NK-1R | 
5 | neurokinin B |  |  |  |  |  | little or no inhibition | 
